PMC9841532, “Exploring the Effect of Halogenation in a Series of Potent and Selective A2B Adenosine Receptor Antagonists” (Journal of Medicinal Chemistry, 2022)

Legend:
A2BAR = molecular target: T1, A2BAR (Homo sapiens, UniProt P29275); test: Cellular impedance label-free assay (xCELLigence) in A2BAR-SNAP cells; type: cell-based; conditions: compound 1 μM, NECA 1 μM, 45 min, n = 4
T1 construct: expressed in transfected cells; host or cells: HEK-293 T cells permanently expressing pRK5-A2BAR^SNAP
T1 sequence (P29275 1-332): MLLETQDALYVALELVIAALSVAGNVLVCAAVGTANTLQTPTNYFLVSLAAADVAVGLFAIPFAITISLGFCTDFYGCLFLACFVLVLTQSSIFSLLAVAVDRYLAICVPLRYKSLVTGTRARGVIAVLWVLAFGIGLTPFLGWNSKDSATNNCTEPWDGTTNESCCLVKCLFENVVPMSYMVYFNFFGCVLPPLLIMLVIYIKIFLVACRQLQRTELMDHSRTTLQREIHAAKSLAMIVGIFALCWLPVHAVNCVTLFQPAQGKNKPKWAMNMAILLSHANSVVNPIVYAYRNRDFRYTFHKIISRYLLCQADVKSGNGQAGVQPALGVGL
Source text: To further evaluate the ability of 16b, 16j, 16r, and 16s to preclude A2BAR function in living cells, we took advantage of the cellular impedance label-free method, a widely accepted morphological and functional biosensor of cell status.[39] Accordingly, whole-cell NECA-mediated impedance responses of A2BAR^SNAP cells were monitored in real time in the absence or presence of 16b, 16j, 16r, and 16s.
Figure 4 Blockade of A2BAR-mediated whole-cell label-free responses. (A) Representative example of the impedance signal obtained over the time upon incubation with A2BAR ligands. […] (B) The area under the curve (AUC) derived from the normalized cell index (NCI) shown in (A) was calculated for each condition. Data are expressed as mean ± SEM (n = 4). ***P < 0.001 and **P < 0.01, one-way ANOVA with a Dunnett’s multiple-comparison test when compared to vehicle (Veh).
The xCELLigence RTCA system (Roche) was employed to assess the impact of blocking A2BAR-mediated effects in cellular impedance upon receptor activation, as previously described.[57]−[60] To this end, A2BAR^SNAP cells were growth in 16-well E-plates (Roche), using DMEM supplemented with 1 mM sodium pyruvate, 2 mM L-glutamine, 100 U/mL streptomycin, […] penicillin, and 1.5% (v/v) fetal bovine serum in the presence of 0.5 U/mL of ADA. Of note, wells were previously coated with 50 μL fibronectin (10 μg/mL; Sigma-Aldrich) and the background index for each well was determined with supplemented DMEM (90 μL) in the absence of cells. Subsequently, A2BAR^SNAP cells (90 μL) were plated at a cell density of 10,000 cells/well and grown for 18 h in the RTCA SP device station (Roche) at 37 °C in an atmosphere of 5% CO2. Then, before ligand addition, cell index values were normalized to the same time point using the RTCA software, providing the normalized cell index (NCI). After ligand stimulation, NCI was recorded every 15 s for a total time of at least 45 min. The area under the curve (AUC) for every condition was calculated using GraphPad Prism 9.

hA2AAR = molecular target: T2, hA2AAR (Homo sapiens, UniProt P29274); test: Radioligand binding competition, [3H]ZM241385, membranes from HeLa-A2A cells; conditions: 1 μM, [3H]ZM241385, human HeLa cells, n = 2
T2 construct: expressed in transfected cells; host or cells: HeLa (HeLa-A2A) cell membranes
T2 sequence (P29274 whole entry): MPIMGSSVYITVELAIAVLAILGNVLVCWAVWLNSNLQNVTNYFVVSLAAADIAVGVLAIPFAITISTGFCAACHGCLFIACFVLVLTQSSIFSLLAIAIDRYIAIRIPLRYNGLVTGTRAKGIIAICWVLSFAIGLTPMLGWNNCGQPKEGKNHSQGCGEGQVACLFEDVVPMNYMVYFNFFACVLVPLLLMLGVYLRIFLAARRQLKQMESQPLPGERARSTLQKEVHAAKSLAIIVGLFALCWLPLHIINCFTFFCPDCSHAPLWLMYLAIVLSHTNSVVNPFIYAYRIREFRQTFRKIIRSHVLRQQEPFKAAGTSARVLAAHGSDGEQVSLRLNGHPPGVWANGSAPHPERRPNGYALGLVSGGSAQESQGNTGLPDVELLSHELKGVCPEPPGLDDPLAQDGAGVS
Method in brief: (§1)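 Racemates, plus selected enantiomers after chiral resolution, were tested at 25 °C, with a 60 min incubation for one subtype and 30 min for others. Non-specific binding was defined with 10 μM or 100 μM R-PIA. Bound radioactivity was counted after washing and filtration.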

CYP3A4 = molecular target: T3, CYP3A4 (Homo sapiens, UniProt P08684); test: CYP3A4 inhibition (fluorescence, substrates DBF or 7-BFC); type: biochemical; conditions: for CYP3A4 % inh. at 10 μM, 7-BFC: substrate 7-benzyloxy-4-trifluoromethyl-coumarin; for IC50: IC50 obtained by extrapolation with analysis software, read-out: CYP3A4 IC50, DBF
T3 construct: host or cells: insect cell microsomes
T3 sequence (P08684 whole entry): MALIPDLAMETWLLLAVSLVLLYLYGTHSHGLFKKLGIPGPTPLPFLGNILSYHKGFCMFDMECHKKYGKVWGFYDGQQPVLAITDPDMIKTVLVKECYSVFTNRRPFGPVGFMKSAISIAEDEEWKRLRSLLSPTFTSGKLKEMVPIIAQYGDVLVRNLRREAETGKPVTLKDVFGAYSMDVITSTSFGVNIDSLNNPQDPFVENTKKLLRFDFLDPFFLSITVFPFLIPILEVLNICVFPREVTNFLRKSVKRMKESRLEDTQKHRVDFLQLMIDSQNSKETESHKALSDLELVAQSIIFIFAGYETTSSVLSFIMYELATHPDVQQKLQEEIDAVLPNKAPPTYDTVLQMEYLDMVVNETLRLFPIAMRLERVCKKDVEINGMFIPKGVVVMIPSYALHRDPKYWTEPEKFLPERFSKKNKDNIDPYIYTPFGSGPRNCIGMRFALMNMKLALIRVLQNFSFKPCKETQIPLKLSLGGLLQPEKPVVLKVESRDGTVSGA
Method: To identify potential metabolic liabilities within the series here documented, the selected A2BAR antagonists were tested in vitro for CYP3A4 inhibitory activity.
The inhibitory activity of selected compounds was evaluated by following a previously described method.[31] […] The plate was then pre-incubated at 37 °C for 5 min and the reaction initiated by the addition of a pre-warmed enzyme/substrate (E/S) mix. The E/S mix contained buffer (KH2PO4), c-DNA-expressed P450 in insect cell microsomes, substrate (DBF: dibenzylfluorescein or 7-BFC: 7-benzyloxy-4-trifluoromethyl-coumarin) and other components to give the final assay concentrations in a reaction volume of 200 μL. Reactions were terminated after various times (a specific time for each cytochrome) by addition of STOP solution (ACN/Tris–HCl 0.5 M 80:20, and NaOH 2 N for CYP3A4). Fluorescence per well was measured using a fluorescence plate reader (Tecan Infinite M1000 PRO), and percentage of inhibition was calculated. In silico predictions were performed using free web-based models (FAME 3, SmartCYP, and Xenosite).[62]−[64]

hA3AR = molecular target: T4, hA3AR (Homo sapiens, UniProt P0DMS8); test: Radioligand binding competition, [3H]NECA, membranes from HeLa-A3 cells; conditions: 1 μM, [3H]NECA, human HeLa cells, n = 2
T4 construct: expressed in transfected cells; host or cells: HeLa (HeLa-A3) cell membranes
T4 sequence (P0DMS8 1-318): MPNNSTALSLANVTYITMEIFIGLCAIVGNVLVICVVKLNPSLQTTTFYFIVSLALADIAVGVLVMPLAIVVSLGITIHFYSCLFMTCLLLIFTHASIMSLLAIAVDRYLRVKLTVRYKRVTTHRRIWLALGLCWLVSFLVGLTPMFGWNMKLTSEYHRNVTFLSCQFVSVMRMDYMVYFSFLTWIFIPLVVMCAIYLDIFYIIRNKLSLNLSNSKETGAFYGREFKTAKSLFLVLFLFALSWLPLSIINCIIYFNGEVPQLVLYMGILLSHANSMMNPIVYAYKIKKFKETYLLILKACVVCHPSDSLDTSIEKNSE
Method in brief: as §1

Row | Blockade of NECA-induced changes in cellular impedance (AUC of normalized cell index) (A2BAR) | % at 1 μM hA2A (percentage displacement of specific binding) (hA2AAR) [%] | CYP3A4 % inh. at 10 μM, 7-BFC (CYP3A4; 10 μM) [%] | IC50 (CYP3A4; substrate dibenzylfluorescein) [nM] | % at 1 μM hA3 (percentage displacement of specific binding) (hA3AR) [%] | CYP3A4 % inh. at 10 μM, DBF (CYP3A4; 10 μM, substrate dibenzylfluorescein) [%] | SMILES
1 | significantly blocked | 2 | 52 | 2260 ± 300 | 10 |  | CC1=C(C(=O)OC(C)C)C(c2ccco2)n2c(nc3cc(Br)ccc32)N1 (stereo not drawn) [16r]
2 | significantly blocked | 2 | 63 |  | 3 | 40 | CC1=C(C(=O)OC(C)C)C(c2ccco2)n2c(nc3cc(F)ccc32)N1 (stereo not drawn) [16b]
3 | significantly blocked | 24 | 54 | 3680 ± 470 | 2 |  | CC1=C(C(=O)OC(C)C)C(c2ccco2)n2c(nc3cc(Cl)ccc32)N1 (stereo not drawn) [16j]
